Where two headings read alike, the source gives them in different places.

This assay has as its target T1, human β3 adrenergic receptor (Homo sapiens, UniProt P13945).
T1 construct: expressed in transfected cells; host or cells: CHO (Chinese hamster ovary) cells, stably transfected
Put plainly: Beta-3 agonist in vitro functional assay (cAMP production, LANCE, transfected CHO cells). The format is cell-based. As to the method: Functional Assay: For compounds in examples 1-50, cAMP production in response to ligand is measured according to Barton, et al. (1991, Agonist-induced desensitization of D2 dopamine receptors in human Y-79 retinoblastoma cells. Mol. Pharmacol. […]:650-658) modified as follows. The cAMP production is measured using a homogenous time-resolved fluorescence resonance energy transfer immunoassay (LANCE™, Perkin Elmer) according to the manufacture's instructions. Chinese hamster ovary (CHO) cells, stably transfected with the cloned β-adrenergic receptor (β1, β2 or β3) are harvested after 3 days of subculturing. Harvesting of cells is done with Enzyme-free Dissociation Media (Specialty Media). Cells are then counted and resuspended in assay buffer (Hank's Balanced salt solution supplemented with 5 mM HEPES, […]) containing a phosphodiesterase inhibitor (IBMX, 0.6 mM). The reaction is initiated by mixing 6,000 cells in 6 μL with 6 μL Alexa Fluor labeled cAMP antibody (LANCE™ kit) which is then added to an assay well containing 12 μL of compound (diluted in assay buffer to 2× final concentration). The reaction proceeds for 30 minutes at RT and is terminated by the addition of 24 ul detection buffer (LANCE™ kit). The assay plate is then incubated for 1 h at RT and time-resolved fluorescence measured on a Perkin Elmer Envision reader or equivalent. The unknown cAMP level is determined by comparing fluorescence levels to a cAMP standard curve.
The non-selective, full agonist β-adrenergic ligand isoproterenol is used at all three receptors to determine maximal stimulation. The human β3 adrenergic receptor (AR) selective ligand (S)-N-[4-[2-[[2-hydroxy-3-(4-hydroxyphenoxy)propyl]amino]ethyl]-phenyl]-4-iodobenzenesulfonamide is used as a control in all assays. […] The EC50 is defined as the concentration of compound that gives 50% activation of its own maximum. Data are analyzed using Microsoft Excel and Graphpad Prism or an internally developed data analysis software package.
The EC50 is defined as the concentration of compound that gives 50% activation of its own maximum. Functional antagonist assays are performed similar to described above; however, unknown ligands are titrated at β-adrenergic receptor subtypes 1 and 2 at a final concentration in the assay of 10^-12 M to 10^-5 M in the presence of 10^-9 M full agonist β-adrenergic ligand isoproterenol. The EC50 is defined as the concentration of compound that gives 50% inhibition of the full agonist response. Data are analyzed using Microsoft Excel and Graphpad Prism or an internally developed data analysis software package.
In general terms: Changes in cAMP serve as a functional read-out for many G protein-coupled receptors.

Setting [1] is: given as a range, CHO cells with cloned β3 receptor, read-out: human Beta-3 agonist functional activity.
[2] abbreviates: Table 1, CHO cells with cloned β3 receptor, ligands titrated 10^-10 M to 10^-5 M, read-out: Human β3 agonist functional activity.
The mark [3] stands for this setting: Table 3, CHO cells with cloned β3 receptor, ligands titrated 10^-12 M to 10^-5 M, read-out: Human β3 agonist functional activity.

T1 sequence (P13945 whole entry): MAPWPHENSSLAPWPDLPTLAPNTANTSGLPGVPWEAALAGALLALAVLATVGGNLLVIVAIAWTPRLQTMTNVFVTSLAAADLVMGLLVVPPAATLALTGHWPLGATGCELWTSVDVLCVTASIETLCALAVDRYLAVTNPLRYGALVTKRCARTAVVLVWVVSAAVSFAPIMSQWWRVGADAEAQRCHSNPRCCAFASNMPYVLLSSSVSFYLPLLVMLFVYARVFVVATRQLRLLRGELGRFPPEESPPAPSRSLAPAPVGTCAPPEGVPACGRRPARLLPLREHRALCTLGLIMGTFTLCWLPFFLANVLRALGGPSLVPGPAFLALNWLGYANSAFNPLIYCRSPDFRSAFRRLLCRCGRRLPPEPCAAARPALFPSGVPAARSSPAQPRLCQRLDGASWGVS

On to `CN(Cc1ccccc1F)C(=O)c1ccc(C[C@@H]2CC[C@H]([C@H](O)c3ccccc3)N2)cc1` [Example 135, N-(2-fluorobenzyl)-4-({(2S,5R)-5-[(R)-hydroxy(phenyl)methyl]pyrrolidin-2-yl}methyl)-N-methylbenzamide], for which the EC50 under setting [1] fell in the range of 10 to 99.9 nM. Turning to `O=C(NCc1cccc(Cl)n1)c1ccc(C[C@@H]2CC[C@H]([C@H](O)c3ccccc3)N2)cc1` [Example 6], under setting [2], the EC50 lay within 10 to 99.9 nM.

With `O=C(c1ccc(C[C@@H]2CC[C@H]([C@H](O)c3ccccc3)N2)cc1)N(Cc1cccnn1)C1CC1` [Example 130], under setting [3], the EC50 was in the range of 100 to 999 nM. Same read-out and setting: the figure for `CN(Cc1ccccn1)C(=O)c1ccc(C[C@@H]2CC[C@H]([C@H](O)c3ccccc3)N2)cc1` [Example 54] is 100 to 999 nM. For the compound `Cn1c(CNC(=O)c2ccc(C[C@@H]3CC[C@H]([C@H](O)c4ccccc4)N3)cc2)nc2ccccc21` [Example 35], the EC50 under setting [2] lay in the range of 10 to 99.9 nM. Take `CN(C)C(=O)c1ccc(C[C@@H]2CC[C@H](C(O)c3ccc(N)nc3)N2)cc1` (stereo partly drawn) [Example 133, 4-({(2S,5R)-5-[(6-aminopyridin-3-yl)(hydroxy)methyl]pyrrolidin-2-yl}methyl)-N,N-dimethylbenzamide]: under setting [1], the EC50 fell in the range of 10 to 99.9 nM.

For `O=C(NCc1nccc(-c2ccccc2)n1)c1ccc(C[C@@H]2CC[C@H]([C@H](O)c3ccccc3)N2)cc1` [Example 21], under setting [2], the EC50 fell in the range of 10 to 99.9 nM. Regarding `CN(Cc1ccon1)C(=O)c1ccc(C[C@@H]2CC[C@H]([C@H](O)c3ccccc3)N2)cc1` [Example 86], the EC50 under setting [3] lay in the range of 10 to 99.9 nM. Consider `CCN(CCN)C(=O)c1ccc(C[C@@H]2CC[C@H]([C@H](O)c3ccccc3)N2)cc1` [Example 115], for which, under setting [3], the EC50 was 100 to 999 nM. Turning to `Cc1ccnc(CNC(=O)c2ccc(C[C@@H]3CC[C@H]([C@H](O)c4ccccc4)N3)cc2)c1` [Example 19], the EC50 under setting [2] lay in the range of 10 to 99.9 nM. Take `CN(Cc1ncc[nH]1)C(=O)c1ccc(C[C@@H]2CC[C@H]([C@H](O)c3ccccc3)N2)cc1` [Example 113]: the EC50 under setting [3] was in the range of 10 to 99.9 nM.

Consider `O=C(NCc1nc2ccccc2s1)c1ccc(C[C@@H]2CC[C@H]([C@H](O)c3ccccc3)N2)cc1` [Example 40], for which, under setting [2], the EC50 was in the range of 10 to 99.9 nM.

As to `Cc1cccc(CNC(=O)c2ccc(C[C@@H]3CC[C@H]([C@H](O)c4ccccc4)N3)cc2)n1` [Example 17], the EC50 under setting [2] lay within 100 to 999 nM.

For the compound `O=C(NCc1cc(Cl)ccn1)c1ccc(C[C@@H]2CC[C@H]([C@H](O)c3ccccc3)N2)cc1` [Example 5], the EC50 under setting [2] lay within 10 to 99.9 nM. For the compound `CN(Cc1cccc(Br)n1)C(=O)c1ccc(C[C@@H]2CC[C@H]([C@H](O)c3ccccc3)N2)cc1` [Example 77], under setting [3], the EC50 was in the range of 10 to 99.9 nM. Same read-out and setting: the figure for `CN(Cc1ccc2nccnc2c1)C(=O)c1ccc(C[C@@H]2CC[C@H]([C@H](O)c3ccccc3)N2)cc1` [Example 92] is 10 to 99.9 nM; for `CC(C)c1noc(CN(C)C(=O)c2ccc(C[C@@H]3CC[C@H]([C@H](O)c4ccccc4)N3)cc2)n1` [Example 93] it is 10 to 99.9 nM. For `O=C(NCc1ccc2ccccc2n1)c1ccc(C[C@@H]2CC[C@H]([C@H](O)c3ccccc3)N2)cc1` [Example 44], under setting [2], the EC50 fell in the range of 10 to 99.9 nM.

As for `Cc1cc(-c2ccccc2)nc(CNC(=O)c2ccc(C[C@@H]3CC[C@H]([C@H](O)c4ccccc4)N3)cc2)n1` [Example 22], the EC50 under setting [2] lay in the range of 10 to 99.9 nM.

For `Cc1csc(CCN(C)C(=O)c2ccc(C[C@@H]3CC[C@H]([C@H](O)c4ccccc4)N3)cc2)n1` [Example 88], the EC50 under setting [3] is 10 to 99.9 nM. Take `CN(CCc1ccccn1)C(=O)c1ccc(C[C@@H]2CC[C@H]([C@H](O)c3ccccc3)N2)cc1` [Example 134, 4-({(2S,5R)-5-[(R)-hydroxy(phenyl)methyl]pyrrolidin-2-yl}methyl)-N-methyl-N-[2-(pyridin-2-yl)ethyl)benzamide]: the EC50 under setting [1] is 10 to 99.9 nM. As to `O=C(NCc1cc2ccccc2cn1)c1ccc(C[C@@H]2CC[C@H]([C@H](O)c3ccccc3)N2)cc1` [Example 45], under setting [2], the EC50 was 10 to 99.9 nM.

In the case of `O=C(NC1CCc2scnc21)c1ccc(C[C@@H]2CC[C@H]([C@H](O)c3ccccc3)N2)cc1` (stereo partly drawn) [Example 47], the EC50 under setting [2] is 100 to 999 nM. Consider `Cc1cccnc1CN(C)C(=O)c1ccc(C[C@@H]2CC[C@H]([C@H](O)c3ccccc3)N2)cc1` [Example 62], for which the EC50 under setting [3] lay in the range of 10 to 99.9 nM. Consider `CN(Cc1csc(N)n1)C(=O)c1ccc(C[C@@H]2CC[C@H]([C@H](O)c3ccccc3)N2)cc1` [Example 132], for which, under setting [3], the EC50 is 100 to 999 nM. Turning to `Cc1cc(C)nc(CNC(=O)c2ccc(C[C@@H]3CC[C@H]([C@H](O)c4ccccc4)N3)cc2)n1` [Example 3], the EC50 under setting [2] fell in the range of 10 to 99.9 nM. On to `O=C(NCc1ccccn1)c1ccc(C[C@@H]2CC[C@H]([C@H](O)c3ccccc3)N2)cc1` [Example 2], for which the EC50 under setting [2] was in the range of 10 to 99.9 nM. `Cc1cccc(CN(C)C(=O)c2ccc(C[C@@H]3CC[C@H]([C@H](O)c4ccccc4)N3)cc2)n1` [Example 67]: the EC50 under setting [3] fell in the range of 10 to 99.9 nM.

Take `Cc1cc(C)nc(CNC(=O)c2ccc(C[C@@H]3CC[C@H]([C@H](O)c4ccc(F)cc4)N3)cc2)n1` [Example 50]: under “Table 2, CHO cells with cloned β3 receptor, ligands titrated 10^-10 M to 10^-5 M, read-out: Human β3 agonist functional activity”, the EC50 lay in the range of 10 to 99.9 nM. On to `CCN(Cc1ccccn1)C(=O)c1ccc(C[C@@H]2CC[C@H]([C@H](O)c3ccccc3)N2)cc1` [Example 121], for which, under setting [3], the EC50 fell in the range of 100 to 999 nM. `CN(CC1CCCO1)C(=O)c1ccc(C[C@@H]2CC[C@H]([C@H](O)c3ccccc3)N2)cc1` (stereo partly drawn) [Example 127]: the EC50 under setting [3] was in the range of 100 to 999 nM. On the same count and under the same terms, the figure for `CN(Cc1cscn1)C(=O)c1ccc(C[C@@H]2CC[C@H]([C@H](O)c3ccccc3)N2)cc1` [Example 108] is 100 to 999 nM; for `CN(Cc1cccc2ncccc12)C(=O)c1ccc(C[C@@H]2CC[C@H]([C@H](O)c3ccccc3)N2)cc1` [Example 109] it is 100 to 999 nM; for `COc1ccccc1CN(C)C(=O)c1ccc(C[C@@H]2CC[C@H]([C@H](O)c3ccccc3)N2)cc1` [Example 65] it is 10 to 99.9 nM. Still for that read-out and setting: the figure for `CN(CCC1CCCCO1)C(=O)c1ccc(C[C@@H]2CC[C@H]([C@H](O)c3ccccc3)N2)cc1` (stereo partly drawn) [Example 119] is 100 to 999 nM; for `O=C(c1ccc(C[C@@H]2CC[C@H]([C@H](O)c3ccccc3)N2)cc1)N(CCO)Cc1ccccc1F` [Example 87] it is 1 to 9.9 nM; for `Cc1cc(CN(C)C(=O)c2ccc(C[C@@H]3CC[C@H]([C@H](O)c4ccccc4)N3)cc2)on1` [Example 82] it is 10 to 99.9 nM.

Regarding `O=C(NCc1cc(-c2ccccc2)ncn1)c1ccc(C[C@@H]2CC[C@H]([C@H](O)c3ccccc3)N2)cc1` [Example 23], the EC50 under setting [2] lay within 10 to 99.9 nM.

As for `CN(C(=O)c1ccc(CC2CCC(C(O)c3ccccc3)N2)cc1)C(c1ccccn1)C1CC1` (mixture of isomers) [Example 96], the EC50 under setting [3] lay in the range of 100 to 999 nM. On the same count and under the same terms, next, `CCN(Cc1ccnc(C(C)C)n1)C(=O)c1ccc(C[C@@H]2CC[C@H]([C@H](O)c3ccccc3)N2)cc1` [Example 104]: 10 to 99.9 nM. Same read-out and setting: next, `COCc1cc(CN(C)C(=O)c2ccc(C[C@@H]3CC[C@H]([C@H](O)c4ccccc4)N3)cc2)n[nH]1` [Example 90]: below 1 nM.

For the compound `CN(Cc1cccc(N)n1)C(=O)c1ccc(C[C@@H]2CC[C@H]([C@H](O)c3ccccc3)N2)cc1` [Example 136, N-[(6-aminopyridin-2-yl)methyl]-4-({(2S,5R)-5-[(R)-hydroxy(phenyl)methyl]pyrrolidin-2-yl}methyl)-N-methylbenzamide], under setting [1], the EC50 is below 1 nM. Take `CN(Cc1nccs1)C(=O)c1ccc(C[C@@H]2CC[C@H]([C@H](O)c3ccccc3)N2)cc1` [Example 118]: the EC50 under setting [3] lay in the range of 100 to 999 nM.

As to `O=C(NCc1ncc(-c2ccccc2)cn1)c1ccc(C[C@@H]2CC[C@H]([C@H](O)c3ccccc3)N2)cc1` [Example 24], the EC50 under setting [2] fell in the range of 10 to 99.9 nM. For `Cn1c(CNC(=O)c2ccc(C[C@@H]3CC[C@H]([C@H](O)c4cccnc4)N3)cc2)nc2ccccc21` [Example 36], under setting [2], the EC50 lay within 10 to 99.9 nM. Regarding `CC(C)c1nccc(CN(C)C(=O)c2ccc(C[C@@H]3CC[C@H]([C@H](O)c4ccccc4)N3)cc2)n1` [Example 80], the EC50 under setting [3] is 1 to 9.9 nM.

On to `O=C(NCc1nc2ccncc2[nH]1)c1ccc(C[C@@H]2CC[C@H]([C@H](O)c3cccnc3)N2)cc1` [Example 39], for which the EC50 under setting [2] is 10 to 99.9 nM. The same measure, in the same setting: the figure for `COC(=O)c1ccnc(CNC(=O)c2ccc(C[C@@H]3CC[C@H]([C@H](O)c4ccccc4)N3)cc2)c1` [Example 7] is 10 to 99.9 nM.

The record behind these values is US8604038B2, “Pyrrolidine derived beta 3 adrenergic receptor agonists” (Merck Sharp & Dohme Corp., priority 2009, dated 2013).
